Molecules are shown by their SMILES. “And” between values parts separate entries of the source, which are not always exact repeats. Equal entries are not always repeated. Where two headings read alike, the source gives them in different places.

The target of series [1] is T1, SFRP-1 (Homo sapiens, UniProt Q8N474).
T1 sequence (Q8N474 32-314): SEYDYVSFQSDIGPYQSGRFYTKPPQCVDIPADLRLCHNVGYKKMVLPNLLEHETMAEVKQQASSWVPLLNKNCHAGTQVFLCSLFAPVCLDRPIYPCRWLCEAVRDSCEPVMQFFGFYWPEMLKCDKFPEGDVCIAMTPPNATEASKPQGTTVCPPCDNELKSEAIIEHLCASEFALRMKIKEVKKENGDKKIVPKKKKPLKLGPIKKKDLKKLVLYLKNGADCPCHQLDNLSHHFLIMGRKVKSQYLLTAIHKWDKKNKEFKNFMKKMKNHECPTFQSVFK
The series is described as follows: Fluorescence polarization binding assay (competitive displacement of a probe compound from SFRP-1).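 Further: test compound competes with a fluorescent probe held by SFRP-1, seen as a drop in probe anisotropy after incubation in darkness, with anisotropy as function of rising compound dose.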 Particulars: fluorescence anisotropy, 45 nM SFRP-1, 20 nM probe. On the technique in general: Polarisation of emitted light reports the rotation of a fluorescent probe.

The target of series [2] is T1, SFRP-1. The series can be described thus: Cell-based assay for in vitro measurement of SFRP-1/SARP2 antagonist activity (U2OS cells co-transfected with 16x TCF-tk-Luciferase reporter, Wnt and hSFRP-1).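 On all read-outs here: U2OS cells co-transfected with a TCF-tk luciferase reporter, a Wnt vector, hSFRP-1 or empty vector and CMV-βgal, luciferase luminescence read in cell lysates alongside βgal activity.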 Particulars: for fold induction at 10 µM / fold induction at 15 µM / fold induction at 14 µM: U2OS; for fold induction at 10 µM: read-out: Fold Induction with SFRP-1, U2OS cells, single dose 10 μM, luciferase reporter, fold induction over SFRP-1 control.

Setting [3] is: read-out: Fold Induction with SFRP-1, Conc 15 μM, with SFRP-1, fold induction over SFRP-1 control, single dose.
The mark [4] stands for this setting: read-out: Fold Induction without SFRP-1, Conc 15 μM, without SFRP-1, single dose.
Where [5] appears, read: Conc 15 μM, with SFRP-1, fold induction over SFRP-1 control, single dose.

Usually IC50 stands for the concentration that inhibits the measured activity by half. Read a low IC50 as greater potency. The EC50 is the concentration needed to bring the measured effect to its halfway point. A high value points to lower potency in that assay. On to `C[C@@H](NS(=O)(=O)c1cc(S(=O)(=O)c2ccccc2)ccc1Cl)[C@H](O)c1ccccc1` (relative stereo) [Example 676, 2-chloro-N-[(1R*,2R*)-2-hydroxy-1-methyl-2-phenylethyl]-5-(phenylsulfonyl)benzenesulfonamide], for which, at SFRP-1 [1], the IC50 worked out at 9000 nM. Also, on SFRP-1 [2], the EC50 was found to be 8900 nM and the fold induction at 10 µM stood at 2.6.

For the compound `C[C@@H](NS(=O)(=O)c1cc(S(=O)(=O)c2ccccc2)ccc1C(F)(F)F)[C@H](O)c1ccccc1` (relative stereo) [Example 684, N-[(1R*,2R*)-2-hydroxy-1-methyl-2-phenylethyl]-5-(phenylsulfonyl)-2-(trifluoromethyl)benzenesulfonamide], the concentration for half-maximal inhibition (IC50) at SFRP-1 [1] was found to be 1000 nM. Also, at SFRP-1 [2], the EC50 stood at 29300 nM and the fold induction at 10 µM came to 1.7.

On to `Cc1ccc(S(=O)(=O)c2ccc(F)cc2)cc1S(=O)(=O)NCCN1CCOCC1` [Example 169, 5-[(4-fluorophenyl)sulfonyl]-2-methyl-N-(2-morpholin-4-ylethyl)benzenesulfonamide], for which the IC50 on SFRP-1 [1] was 13000 nM. Besides, the fold induction at 15 µM at SFRP-1 [2] (setting [3]) was 2.6; on SFRP-1 [2] (setting [4]) it was 0.9.

As for `Cc1ccc(S(=O)(=O)c2ccc(F)cc2)cc1S(=O)(=O)NCCCn1ccnc1` [Example 177, 5-[(4-fluorophenyl)sulfonyl]-N-[3-(1H-imidazol-1-yl)propyl]-2-methylbenzenesulfonamide], the IC50 on SFRP-1 [1] amounted to 2900 nM. Also, the fold induction at 14 µM at SFRP-1 [2] (read-out: Fold Induction with SFRP-1, Conc 14 μM, with SFRP-1, fold induction over SFRP-1 control, single dose) amounted to 2.9; at SFRP-1 [2] (read-out: Fold Induction without SFRP-1, Conc 14 μM, without SFRP-1, single dose) it was 1. Besides, the fold induction at 15 µM on SFRP-1 [2] (setting [3]) came out at 3.6; at SFRP-1 [2] (setting [4]) it was 1.

Take `COC(=O)CCNS(=O)(=O)c1cc(S(=O)(=O)c2ccccc2)ccc1C` [Example 204, methyl N-{[2-methyl-5-(phenylsulfonyl)phenyl]sulfonyl}-beta-alaninate]: on SFRP-1 [1], the half-inhibitory concentration (IC50) came to 8000 nM. The fold induction at 15 µM at SFRP-1 [2] (setting [3]) came to 3.4; on SFRP-1 [2] (setting [4]), 1.1.

Compound `Cc1ccc(S(=O)(=O)c2ccccc2)cc1S(=O)(=O)NCCc1ccccn1` [Example 205, 2-methyl-5-(phenylsulfonyl)-N-(2-pyridin-2-ylethyl)benzenesulfonamide] showed an IC50 at SFRP-1 [1] of 3000 nM. For the same compound, the fold induction at 15 µM on SFRP-1 [2] (setting [3]) turned out to be 2.3; on SFRP-1 [2] (setting [4]), 0.8.

In the case of `Cc1ccc(S(=O)(=O)c2ccccc2)cc1S(=O)(=O)NCCCn1ccnc1` [Example 219, N-[3-(1H-imidazol-1-yl)propyl]-2-methyl-5-(phenylsulfonyl)benzenesulfonamide], on SFRP-1 [1], the half-inhibitory concentration (IC50) is 3000 nM and 1100 nM and 2100 nM. The “Fold Induction with SFRP-1” value at SFRP-1 [2] (setting [5]) is reported as 3.6 fold. The fold induction at 15 µM stood at 3 at SFRP-1 [2] (setting [3]) and 1.1 on SFRP-1 [2] (setting [4]).

For the compound `CCc1ccc(S(=O)(=O)c2ccccc2)cc1S(=O)(=O)NCCc1ccccn1` [Example 223, 2-ethyl-5-(phenylsulfonyl)-N-(2-pyridin-2-ylethyl)benzenesulfonamide], the IC50 at SFRP-1 [1] was 900 nM. Further, the figures for the fold induction at 15 µM at SFRP-1 [2] (setting [3]) and on SFRP-1 [2] (setting [4]) were 2.6 and 0.8, respectively.

Take `CCc1ccc(S(=O)(=O)c2ccccc2)cc1S(=O)(=O)NCCN1CCOCC1` [Example 226, 2-ethyl-N-(2-morpholin-4-ylethyl)-5-(phenylsulfonyl)benzenesulfonamide]: at SFRP-1 [1], the concentration for half-maximal inhibition (IC50) was found to be 2600 nM. The fold induction at 15 µM at SFRP-1 [2] (setting [3]) was 3; at SFRP-1 [2] (setting [4]), 0.7.

Take `CCc1ccc(S(=O)(=O)c2ccccc2)cc1S(=O)(=O)NCCCOC` [Example 227, 2-ethyl-N-(3-methoxypropyl)-5-(phenylsulfonyl)benzenesulfonamide]: the IC50 on SFRP-1 [1] was 4000 nM. In addition, the fold induction at 15 µM stood at 2.7 on SFRP-1 [2] (setting [3]) and 0.8 on SFRP-1 [2] (setting [4]).

Turning to `CCc1ccc(S(=O)(=O)c2ccccc2)cc1S(=O)(=O)NCCCN(C)C` [Example 228, N-[3-(dimethylamino)propyl]-2-ethyl-5-(phenylsulfonyl)benzenesulfonamide], the IC50 at SFRP-1 [1] was 8000 nM and 15000 nM. Further, the fold induction at 15 µM on SFRP-1 [2] (setting [3]) worked out at 3.3; on SFRP-1 [2] (setting [4]) it was 1.2.

Compound `CCc1ccc(S(=O)(=O)c2ccccc2)cc1S(=O)(=O)NCCCN(CC)CC` [Example 230, N-[3-(diethylamino)propyl]-2-ethyl-5-(phenylsulfonyl)benzene sulfonamide] yielded an IC50 at SFRP-1 [1] of 16000 nM. Besides, the fold induction at 15 µM worked out at 3.2 at SFRP-1 [2] (setting [3]) and 1.2 on SFRP-1 [2] (setting [4]).

In the case of `CCc1ccc(S(=O)(=O)c2ccccc2)cc1S(=O)(=O)NCCCn1ccnc1` [Example 231, 2-ethyl-N-[3-(1H-imidazol-1-yl)propyl]-5-(phenylsulfonyl)benzenesulfonamide], the IC50 at SFRP-1 [1] was 300 nM and 600 nM. Moreover, the “Fold Induction with SFRP-1” value at SFRP-1 [2] (setting [5]) was found to be 2.8 fold. Moreover, the “Fold Induction without SFRP-1” value on SFRP-1 [2] (Conc 15 μM, without SFRP-1, single dose) was 0.8 fold. The fold induction at 15 µM on SFRP-1 [2] (setting [3]) is 3.4; at SFRP-1 [2] (setting [4]), 1.

With `CC(C)c1ccc(S(=O)(=O)c2ccccc2)cc1S(=O)(=O)NCCc1ccccc1` [Example 295, 2-isopropyl-N-(2-phenylethyl)-5-(phenylsulfonyl)benzenesulfonamide], the half-inhibitory concentration (IC50) on SFRP-1 [1] worked out at 300 nM. For the same compound, the fold induction at 15 µM came out at 2.7 at SFRP-1 [2] (setting [3]) and 1.5 on SFRP-1 [2] (setting [4]).

`CC(C)c1ccc(S(=O)(=O)c2ccccc2)cc1S(=O)(=O)NCCCn1ccnc1` [Example 296, N-[3-(1H-imidazol-1-yl)propyl]-2-isopropyl-5-(phenylsulfonyl)benzenesulfonamide] showed an IC50 on SFRP-1 [1] of 200 nM. In addition, the fold induction at 15 µM at SFRP-1 [2] (setting [3]) was determined as 3.3; at SFRP-1 [2] (setting [4]), 1.4.

Regarding `CCc1ccc(S(=O)(=O)c2ccc(F)cc2)cc1S(=O)(=O)NCCn1ccnc1` [Example 297, 2-ethyl-5-[(4-fluorophenyl)sulfonyl]-N-[2-(1H-imidazol-1-yl)ethyl]benzenesulfonamide], the IC50 at SFRP-1 [1] was determined as 400 nM. Besides, the results for the fold induction at 15 µM at SFRP-1 [2] (setting [3]) and on SFRP-1 [2] (setting [4]) were 4.3 and 1.4, respectively.

In the case of `Cc1ccc(S(=O)(=O)c2ccccc2)cc1S(=O)(=O)NC1CCOCC1` [Example 298, 2-methyl-5-(phenylsulfonyl)-N-tetrahydro-2H-pyran-4-ylbenzenesulfonamide], on SFRP-1 [1], the IC50 was 800 nM. In addition, the fold induction at 15 µM at SFRP-1 [2] (setting [3]) turned out to be 3.2; at SFRP-1 [2] (setting [4]) it was 1.3.

On to `CCc1ccc(S(=O)(=O)c2ccc(F)cc2)cc1S(=O)(=O)NCCCn1ccnc1` [Example 303, 2-ethyl-5-[(4-fluorophenyl)sulfonyl]-N-[3-(1H-imidazol-1-yl)propyl]benzenesulfonamide], for which the concentration for half-maximal inhibition (IC50) at SFRP-1 [1] was 700 nM. Besides, the fold induction at 15 µM on SFRP-1 [2] (setting [3]) is 2.7; on SFRP-1 [2] (setting [4]), 0.8.

`CNc1ccc(S(=O)(=O)c2ccc(C)c(S(=O)(=O)NCCCn3ccnc3)c2)cc1` [Example 310, N-[3-(1H-imidazol-1-yl)propyl]-2-methyl-5-{[4-(methylamino)phenyl]sulfonyl}benzenesulfonamide] had an IC50 at SFRP-1 [1] of 400 nM. Also, the fold induction at 15 µM on SFRP-1 [2] (setting [3]) was 2.9; on SFRP-1 [2] (setting [4]), 1.1.

`CCNc1ccc(S(=O)(=O)c2ccc(C)c(S(=O)(=O)NCCCn3ccnc3)c2)cc1` [Example 311, 5-{[4-(ethylamino)phenyl]sulfonyl}-N-[3-(1H-imidazol-1-yl)propyl]-2-methylbenzenesulfonamide] registered an IC50 at SFRP-1 [1] of 400 nM. For the same compound, the fold induction at 15 µM on SFRP-1 [2] (setting [3]) was determined as 2.4; on SFRP-1 [2] (setting [4]), 1.

On to `Cc1ccc(S(=O)(=O)c2ccc(N3CCOCC3)cc2)cc1S(=O)(=O)NCCCn1ccnc1` [Example 313, N-[3-(1H-imidazol-1-yl)propyl]-2-methyl-5-[(4-morpholin-4-ylphenyl)sulfonyl]benzenesulfonamide], for which, on SFRP-1 [1], the 50% inhibitory concentration (IC50) was determined as 500 nM. The fold induction at 15 µM turned out to be 1.9 at SFRP-1 [2] (setting [3]) and 1 at SFRP-1 [2] (setting [4]).

`Cc1ccc(S(=O)(=O)c2ccccc2)cc1S(=O)(=O)NCCn1ccnc1` [Example 314, N-[2-(1H-imidazol-1-yl)ethyl]-2-methyl-5-(phenylsulfonyl)benzenesulfonamide] registered a half-maximal inhibitory concentration (IC50) on SFRP-1 [1] of 1200 nM. For the same compound, the values for the fold induction at 15 µM on SFRP-1 [2] (setting [3]) and on SFRP-1 [2] (setting [4]) were 3.3 and 1.3, respectively.

Regarding `CC(C)c1ccc(S(=O)(=O)c2ccc(F)cc2)cc1S(=O)(=O)NCCn1ccnc1` [Example 318, 5-[(4-fluorophenyl)sulfonyl]-N-[2-(1H-imidazol-1-yl)ethyl]-2-isopropylbenzenesulfonamide], the IC50 at SFRP-1 [1] is 400 nM and 500 nM and 600 nM and 700 nM and 900 nM. Moreover, the fold induction at 15 µM is 3.9 at SFRP-1 [2] (setting [3]) and 1.1 at SFRP-1 [2] (setting [4]).

`CC(C)c1ccc(S(=O)(=O)c2ccc(F)cc2)cc1S(=O)(=O)NCCCn1ccnc1` [Example 319, 5-[(4-fluorophenyl)sulfonyl]-N-[3-(1H-imidazol-1-yl)propyl]-2-isopropylbenzenesulfonamide] yielded a half-maximal inhibitory concentration (IC50) at SFRP-1 [1] of 600 nM. The figures for the fold induction at 15 µM on SFRP-1 [2] (setting [3]) and on SFRP-1 [2] (setting [4]) were 3.5 and 1.1, respectively.

On SFRP-1 [1], `CC(C)c1ccc(S(=O)(=O)c2ccc(F)cc2)cc1S(=O)(=O)NCCc1ccccn1` [Example 320, 5-[(4-fluorophenyl)sulfonyl]-2-isopropyl-N-(2-pyridin-2-ylethyl)benzenesulfonamide] gave an IC50 of 900 nM. In addition, the figures for the fold induction at 15 µM on SFRP-1 [2] (setting [3]) and on SFRP-1 [2] (setting [4]) were 2.8 and 1.2, respectively.
